Values quoted from earlier work in patent publication US6356845B1, “Crystallization and structure determination of Staphylococcus aureus UDP-N-acetylenolpyruvylglucosamine reductase (S. aureus MurB)” (priority 1999, dated 2002).

Target: T1, S. aureus MurB (Staphylococcus aureus, UniProt P61431)
T1 construct: His6; made in house; host or cells: E. coli K12S (F' lacIq), plasmid pQE-10 murB obtained from Human Genome Sciences
Conditions: read-out: Km for EP-UDPGlcNAc with S. aureus MurB; substrate Km; S. Swaney, personal communication

In the case of C=C(O[C@H]1[C@H](O)[C@@H](CO)O[C@H](OP(=O)(O)OP(=O)(O)OC[C@H]2O[C@@H](n3ccc(=O)[nH]c3=O)[C@H](O)[C@@H]2O)[C@@H]1NC(C)=O)C(=O)O [EP-UDPGlcNAc, Uridine diphospho-N-acetylglucosamine enolpyruvate], the Km is given as 15 µM.
